Values joined by “and” are separate entries in the source; they are usually repeats but may differ in a detail not shown here. Identical values can stand only once. Inconclusive results and toxic doses are left out.
Tested on: BDF1 mice, intracerebral L1210 leukemia, survival T/C
Assay: NCI In Vivo Anticancer Drug Screen. Data for tumor model L1210 Leukemia (intracerebral) in B6D2F1 (BDF1) mice
Details: higher = longer survival
In short: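 Survival measured in treated and vehicle-control tumour-bearing mice; value = T/C.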

Structure (SMILES): Nc1nc(=O)n(C2OC(CO)C(O)C2O)cc1F (stereo unspecified)
- T/C (endpoint: median survival time, dose: 1.0 mg/kg/injection, schedule: Q01DX009 (ip), vehicle: saline): 116 % of control
- T/C (endpoint: median survival time, dose: 2.0 mg/kg/injection, schedule: Q01DX009 (ip), vehicle: saline): 124 % of control
- T/C (endpoint: median survival time, dose: 4.0 mg/kg/injection, schedule: Q01DX009 (ip), vehicle: saline): 124 % of control
- T/C (endpoint: median survival time, dose: 8.0 mg/kg/injection, schedule: Q01DX009 (ip), vehicle: saline): 153 % of control
- T/C (endpoint: median survival time, dose: 8.0 mg/kg/injection, schedule: Q01DX009 (ip), vehicle: water): 173 % of control
- T/C (endpoint: median survival time, dose: 16.0 mg/kg/injection, schedule: Q01DX009 (ip), vehicle: saline): 179 % of control
- T/C (endpoint: median survival time, dose: 16.0 mg/kg/injection, schedule: Q01DX009 (ip), vehicle: water): 212 % of control
- T/C (endpoint: median survival time, dose: 32.0 mg/kg/injection, schedule: Q01DX009 (ip), vehicle: saline): 201 % of control
- T/C (endpoint: median survival time, dose: 32.0 mg/kg/injection, schedule: Q01DX009 (ip), vehicle: water): 234 % of control
- T/C (endpoint: median survival time, dose: 64.0 mg/kg/injection, schedule: Q01DX009 (ip), vehicle: saline): 228 % of control
- T/C (endpoint: median survival time, dose: 64.0 mg/kg/injection, schedule: Q01DX009 (ip), vehicle: water): 247 % of control
- T/C (endpoint: median survival time, dose: 128.0 mg/kg/injection, schedule: Q01DX009 (ip), vehicle: water): 89 % of control
- T/C (endpoint: median survival time, dose: 512.0 mg/kg/injection, schedule: Q01DX009 (ip), vehicle: saline): 98 % of control

Structure (SMILES): Nc1nc2n[nH]nc2c(=O)[nH]1
- T/C (endpoint: mean survival time, dose: 89.0 mg/kg/injection, schedule: Q01DX015 (ip), vehicle: water): 170 % of control
- T/C (endpoint: mean survival time, dose: 117.0 mg/kg/injection, schedule: Q01DX001 (ip), vehicle: carboxymethylcellulose (CMC)): 108 % of control
- T/C (endpoint: mean survival time, dose: 179.0 mg/kg/injection, schedule: Q01DX001 (ip), vehicle: carboxymethylcellulose (CMC)): 107 % of control
- T/C (endpoint: mean survival time, dose: 267.0 mg/kg/injection, schedule: Q01DX001 (ip), vehicle: carboxymethylcellulose (CMC)): 105 % of control

Structure (SMILES): NC(=O)N(CCCl)N=O
- T/C (endpoint: mean survival time, dose: 1.2 mg/kg/injection, schedule: Q01DX001 (ip), vehicle: saline): 115 % of control
- T/C (endpoint: mean survival time, dose: 1.8 mg/kg/injection, schedule: Q01DX001 (ip), vehicle: saline): 112 % of control
- T/C (endpoint: mean survival time, dose: 3.6 mg/kg/injection, schedule: Q01DX001 (ip), vehicle: saline): 163 % of control
- T/C (endpoint: mean survival time, dose: 5.0 mg/kg/injection, schedule: Q01DX001 (ip), vehicle: carboxymethylcellulose (CMC)): 176 % of control and 187 % of control
- T/C (endpoint: mean survival time, dose: 7.2 mg/kg/injection, schedule: Q01DX001 (ip), vehicle: saline): 159 % of control and 229 % of control
- T/C (endpoint: mean survival time, dose: 7.5 mg/kg/injection, schedule: Q01DX001 (ip), vehicle: carboxymethylcellulose (CMC)): 108 % of control

Structure (SMILES): O=P1(N(CCCl)CCCl)NCCCO1 (stereo unspecified)
- T/C (endpoint: mean survival time, dose: 17.5 mg/kg/injection, schedule: Q01DX Z (ip), vehicle: saline): 116 % of control
- T/C (endpoint: mean survival time, dose: 22.0 mg/kg/injection, schedule: Q01DX015 (ip), vehicle: saline): 112 % of control
- T/C (endpoint: mean survival time, dose: 25.0 mg/kg/injection, schedule: Q01DX Z (ip), vehicle: saline): 121 % of control
- T/C (endpoint: mean survival time, dose: 28.0 mg/kg/injection, schedule: Q01DX001 (ip), vehicle: saline): 104 % of control and 118 % of control
- T/C (endpoint: mean survival time, dose: 33.5 mg/kg/injection, schedule: Q01DX015 (ip), vehicle: saline): 123 % of control
- T/C (endpoint: mean survival time, dose: 39.0 mg/kg/injection, schedule: Q01DX009 (sc), vehicle: saline): 151 % of control
- T/C (endpoint: mean survival time, dose: 50.0 mg/kg/injection, schedule: Q01DX001 (ip), vehicle: DMSO): 111 % of control and 119 % of control and 121 % of control
- T/C (endpoint: mean survival time, dose: 50.0 mg/kg/injection, schedule: Q01DX001 (ip), vehicle: Klucel (hydroxypropylcellulose) (HPC)): 119 % of control and 121 % of control
- T/C (endpoint: mean survival time, dose: 50.0 mg/kg/injection, schedule: Q01DX001 (ip), vehicle: water): 111 % of control
- T/C (endpoint: mean survival time, dose: 50.0 mg/kg/injection, schedule: Q08DX002 (ip), vehicle: saline): 115 % of control
- T/C (endpoint: mean survival time, dose: 59.0 mg/kg/injection, schedule: Q01DX001 (ip), vehicle: saline): 117 % of control
- T/C (endpoint: mean survival time, dose: 65.0 mg/kg/injection, schedule: Q01DX009 (sc), vehicle: saline): 151 % of control
- T/C (endpoint: mean survival time, dose: 100.0 mg/kg/injection, schedule: Q01DX001 (ip), vehicle: water): 112 % of control
- T/C (endpoint: mean survival time, dose: 100.0 mg/kg/injection, schedule: Q01DX Z (ip), vehicle: saline): 110 % of control
- T/C (endpoint: mean survival time, dose: 100.0 mg/kg/injection, schedule: Q08DX002 (ip), vehicle: saline): 117 % of control
- T/C (endpoint: mean survival time, dose: 108.0 mg/kg/injection, schedule: Q01DX009 (sc), vehicle: saline): 110 % of control
- T/C (endpoint: mean survival time, dose: 118.0 mg/kg/injection, schedule: Q01DX001 (ip), vehicle: saline): 158 % of control
- T/C (endpoint: mean survival time, dose: 200.0 mg/kg/injection, schedule: Q01DX001 (ip), vehicle: DMSO): 110 % of control
- T/C (endpoint: mean survival time, dose: 200.0 mg/kg/injection, schedule: Q01DX001 (ip), vehicle: Klucel (hydroxypropylcellulose) (HPC)): 119 % of control
- T/C (endpoint: mean survival time, dose: 200.0 mg/kg/injection, schedule: Q01DX001 (ip), vehicle: water): 119 % of control
- T/C (endpoint: mean survival time, dose: 230.0 mg/kg/injection, schedule: Q01DX001 (ip), vehicle: saline): 157 % of control
- T/C (endpoint: mean survival time, dose: 234.0 mg/kg/injection, schedule: Q01DX001 (ip), vehicle: saline): 168 % of control
- T/C (endpoint: mean survival time, dose: 300.0 mg/kg/injection, schedule: Q01DX001 (ip), vehicle: saline): 114 % of control
- T/C (endpoint: mean survival time, dose: 400.0 mg/kg/injection, schedule: Q08DX002 (ip), vehicle: saline): 102 % of control
- T/C (endpoint: mean survival time, dose: 468.0 mg/kg/injection, schedule: Q01DX001 (ip), vehicle: saline): 152 % of control and 172 % of control
- T/C (endpoint: mean survival time, dose: 500.0 mg/kg/injection, schedule: Q01DX001 (ip), vehicle: saline): 106 % of control
- T/C (endpoint: mean survival time, dose: 560.0 mg/kg/injection, schedule: Q01DX001 (ip), vehicle: saline): 151 % of control
- T/C (endpoint: median survival time, dose: 1000.0 mg/kg/injection, schedule: Q01DX001 (oral), vehicle: saline): 119 % of control
- T/C (endpoint: median survival time, dose: 2000.0 mg/kg/injection, schedule: Q01DX001 (oral), vehicle: saline): 516 % of control
- T/C (endpoint: median survival time, dose: 8000.0 mg/kg/injection, schedule: Q01DX001 (oral), vehicle: saline): 45 % of control
- T/C (endpoint: median survival time, dose: 16000.0 mg/kg/injection, schedule: Q01DX001 (oral), vehicle: saline): 43 % of control

Structure (SMILES): O=NN1CCCNC1=O
- T/C (endpoint: mean survival time, dose: 75.0 mg/kg/injection, schedule: Q01DX001 (ip), vehicle: carboxymethylcellulose (CMC)): 119 % of control
- T/C (endpoint: mean survival time, dose: 111.0 mg/kg/injection, schedule: Q01DX001 (ip), vehicle: carboxymethylcellulose (CMC)): 117 % of control
- T/C (endpoint: mean survival time, dose: 150.0 mg/kg/injection, schedule: Q01DX001 (ip), vehicle: carboxymethylcellulose (CMC)): 153 % of control
- T/C (endpoint: mean survival time, dose: 167.0 mg/kg/injection, schedule: Q01DX001 (ip), vehicle: carboxymethylcellulose (CMC)): 186 % of control
- T/C (endpoint: mean survival time, dose: 250.0 mg/kg/injection, schedule: Q01DX001 (ip), vehicle: carboxymethylcellulose (CMC)): 91 % of control

Structure (SMILES): CS(=O)(=O)CCN(N=O)C(=N)N[N+](=O)[O-]
- T/C (endpoint: mean survival time, dose: 12.0 mg/kg/injection, schedule: Q01DX Z (ip), vehicle: carboxymethylcellulose (CMC)): 97 % of control
- T/C (endpoint: mean survival time, dose: 24.0 mg/kg/injection, schedule: Q01DX Z (ip), vehicle: carboxymethylcellulose (CMC)): 100 % of control
- T/C (endpoint: mean survival time, dose: 48.0 mg/kg/injection, schedule: Q01DX Z (ip), vehicle: carboxymethylcellulose (CMC)): 109 % of control
- T/C (endpoint: mean survival time, dose: 96.0 mg/kg/injection, schedule: Q01DX Z (ip), vehicle: carboxymethylcellulose (CMC)): 90 % of control

Structure (SMILES): OCCN1CCN(CC/C=C2/c3ccccc3Sc3ccc(C(F)(F)F)cc32)CC1
- T/C (endpoint: mean survival time, dose: 3.12 mg/kg/injection, schedule: Q04DX003 (ip), vehicle: saline): 113 % of control
- T/C (endpoint: mean survival time, dose: 6.25 mg/kg/injection, schedule: Q04DX003 (ip), vehicle: saline): 111 % of control
- T/C (endpoint: mean survival time, dose: 12.5 mg/kg/injection, schedule: Q04DX003 (ip), vehicle: saline): 113 % of control
- T/C (endpoint: mean survival time, dose: 25.0 mg/kg/injection, schedule: Q04DX003 (ip), vehicle: saline): 100 % of control

Structure (SMILES): Cc1c(O)ccc(=O)n1O
- T/C (endpoint: mean survival time, dose: 49.0 mg/kg/injection, schedule: Q01DX Z (ip), vehicle: other): 98 % of control
- T/C (endpoint: mean survival time, dose: 73.0 mg/kg/injection, schedule: Q01DX Z (ip), vehicle: other): 96 % of control
- T/C (endpoint: mean survival time, dose: 110.0 mg/kg/injection, schedule: Q01DX Z (ip), vehicle: other): 93 % of control
- T/C (endpoint: mean survival time, dose: 165.0 mg/kg/injection, schedule: Q01DX Z (ip), vehicle: other): 110 % of control
- T/C (endpoint: mean survival time, dose: 247.0 mg/kg/injection, schedule: Q01DX Z (ip), vehicle: other): 92 % of control

Structure (SMILES): CCOC(=O)[C@H]1CCC[C@@H](NC(=O)N(CCCl)N=O)C1
- T/C (endpoint: mean survival time, dose: 14.0 mg/kg/injection, schedule: Q01DX001 (ip), vehicle: other): 103 % of control
- T/C (endpoint: mean survival time, dose: 21.0 mg/kg/injection, schedule: Q01DX001 (ip), vehicle: other): 104 % of control
- T/C (endpoint: mean survival time, dose: 31.0 mg/kg/injection, schedule: Q01DX001 (ip), vehicle: other): 111 % of control
- T/C (endpoint: mean survival time, dose: 47.0 mg/kg/injection, schedule: Q01DX001 (ip), vehicle: other): 109 % of control

From PubChem BioAssay AID252 (DTP/NCI, 2004)
